Measurements from ChEMBL document CHEMBL3885881, “DrugMatrix”.

Species on record: Rattus norvegicus
Assay: DrugMatrix - Regimen: Daily Repeat
Assay type: toxicity, organism-based, Sprague-Dawley
Design: regimen Daily Repeat, gender Male, age 6-8 weeks
Settings: in vivo, iv, vehicle 100 % SALINE; for ABSOLUTE BASOPHIL / ABSOLUTE EOSINOPHIL / ABSOLUTE LYMPHOCYTE / ABSOLUTE MONOCYTE / ABSOLUTE SEGMENTED NEUTROPHIL / BASOPHIL / EOSINOPHIL / ERYTHROCYTE COUNT / HEMATOCRIT / HEMOGLOBIN / LEUKOCYTE COUNT / LYMPHOCYTE / MEAN CORPUSCULAR HEMOGLOBIN / MEAN CORPUSCULAR HEMOGLOBIN CONCENTRATION / MEAN CORPUSCULAR VOLUME / MONOCYTE / NEUTROPHIL / NUCLEATED RED BLOOD CELLS / PLATELET COUNT: tissue Blood; for ALANINE AMINOTRANSFERASE / ALBUMIN / ALKALINE PHOSPHATASE / ASPARTATE AMINOTRANSFERASE / BLOOD UREA NITROGEN / CARBON DIOXIDE / CHLORIDE / CHOLESTEROL / CREATINE PHOSPHOKINASE / CREATININE / GLUCOSE / LACTATE DEHYDROGENASE / LIPASE / PHOSPHORUS / POTASSIUM / SODIUM / TOTAL BILIRUBIN / TOTAL PROTEIN / URIC ACID: tissue Plasma
[1] = 0.005 mg/kg, 120 h, dose level Low, time 5 day
[2] = 0.05 mg/kg, 72 h, dose level High, time 3 day
[3] = 0.05 mg/kg, 120 h, dose level High, time 5 day

## CC(=O)O[C@H]1C[C@@H]2CC[C@@H]3[C@H](CC[C@@]4(C)[C@H]3C[C@H]([N+]3(C)CCCCC3)[C@@H]4OC(C)=O)[C@@]2(C)C[C@@H]1N1CCCCC1.[Br-] [VECURONIUM BROMIDE]
[1]
  ABSOLUTE BASOPHIL: 0 CELLS/uL
  ABSOLUTE EOSINOPHIL: 82.33 CELLS/uL
  ABSOLUTE LYMPHOCYTE: 12022.67 CELLS/uL
  ABSOLUTE MONOCYTE: 265.33 CELLS/uL
  ABSOLUTE SEGMENTED NEUTROPHIL: 796.33 CELLS/uL
  BASOPHIL: 0%
  EOSINOPHIL: 0.67%
  ERYTHROCYTE COUNT: 5.48 x10E6/uL
  HEMATOCRIT: 34.87%
  HEMOGLOBIN: 13.83 G/DL
  LEUKOCYTE COUNT: 13.17 x10E3/uL
  LYMPHOCYTE: 91%
  MEAN CORPUSCULAR HEMOGLOBIN: 25.23 pg
  MEAN CORPUSCULAR HEMOGLOBIN CONCENTRATION: 39.7 G/DL
  MEAN CORPUSCULAR VOLUME: 63.63 fL
  MONOCYTE: 2%
  NEUTROPHIL: 6.33%
  NUCLEATED RED BLOOD CELLS: 0 /100WBC
  PLATELET COUNT: 1117 x10E3/uL
  ALANINE AMINOTRANSFERASE: 68.67 u/L
  ALBUMIN: 4.17 G/DL
  ALKALINE PHOSPHATASE: 419 u/L
  ASPARTATE AMINOTRANSFERASE: 85 u/L
  BLOOD UREA NITROGEN: 19.33 mg/dL
  CARBON DIOXIDE: 30 mmol/L
  CHLORIDE: 101.33 MEQ/L
  CHOLESTEROL: 79 mg/dL
  CREATINE PHOSPHOKINASE: 251.67 u/L
  CREATININE: 0.25 mg/dL
  GLUCOSE: 172 mg/dL
  LACTATE DEHYDROGENASE: 116.67 u/L
  LIPASE: 10.33 u/L
  PHOSPHORUS: 12 mg/dL
  POTASSIUM: 5.82 MEQ/L
  SODIUM: 144.07 MEQ/L
  TOTAL BILIRUBIN: 0.2 mg/dL
  TOTAL PROTEIN: 5.9 G/DL
  URIC ACID: 1.27 mg/dL
[2]
  ABSOLUTE BASOPHIL: 0 CELLS/uL
  ABSOLUTE EOSINOPHIL: 0 CELLS/uL
  ABSOLUTE LYMPHOCYTE: 14697.33 CELLS/uL
  ABSOLUTE MONOCYTE: 387 CELLS/uL
  ABSOLUTE SEGMENTED NEUTROPHIL: 1049 CELLS/uL
  BASOPHIL: 0%
  EOSINOPHIL: 0%
  ERYTHROCYTE COUNT: 5.35 x10E6/uL
  HEMATOCRIT: 33.93%
  HEMOGLOBIN: 13.67 G/DL
  LEUKOCYTE COUNT: 16.13 x10E3/uL
  LYMPHOCYTE: 91.33%
  MEAN CORPUSCULAR HEMOGLOBIN: 25.53 pg
  MEAN CORPUSCULAR HEMOGLOBIN CONCENTRATION: 40.27 G/DL
  MEAN CORPUSCULAR VOLUME: 63.37 fL
  MONOCYTE: 2.33%
  NEUTROPHIL: 6.33%
  NUCLEATED RED BLOOD CELLS: 0 /100WBC
  PLATELET COUNT: 1089.33 x10E3/uL
  ALANINE AMINOTRANSFERASE: 70.67 u/L
  ALBUMIN: 4.17 G/DL
  ALKALINE PHOSPHATASE: 375.33 u/L
  ASPARTATE AMINOTRANSFERASE: 108 u/L
  BLOOD UREA NITROGEN: 15.67 mg/dL
  CARBON DIOXIDE: 28.33 mmol/L
  CHLORIDE: 103.33 MEQ/L
  CHOLESTEROL: 83 mg/dL
  CREATINE PHOSPHOKINASE: 435 u/L
  CREATININE: 0.25 mg/dL
  GLUCOSE: 145.33 mg/dL
  LACTATE DEHYDROGENASE: 607.67 u/L
  LIPASE: 12 u/L
  PHOSPHORUS: 12.1 mg/dL
  POTASSIUM: 6.48 MEQ/L
  SODIUM: 142.47 MEQ/L
  TOTAL BILIRUBIN: 0.17 mg/dL
  TOTAL PROTEIN: 5.87 G/DL
  URIC ACID: 1.4 mg/dL
[3]
  ABSOLUTE BASOPHIL: 0 CELLS/uL
  ABSOLUTE EOSINOPHIL: 0 CELLS/uL
  ABSOLUTE LYMPHOCYTE: 14510.33 CELLS/uL
  ABSOLUTE MONOCYTE: 51 CELLS/uL
  ABSOLUTE SEGMENTED NEUTROPHIL: 705.33 CELLS/uL
  BASOPHIL: 0%
  EOSINOPHIL: 0%
  ERYTHROCYTE COUNT: 5.55 x10E6/uL
  HEMATOCRIT: 33.37%
  HEMOGLOBIN: 13.47 G/DL
  LEUKOCYTE COUNT: 15.27 x10E3/uL
  LYMPHOCYTE: 95%
  MEAN CORPUSCULAR HEMOGLOBIN: 24.3 pg
  MEAN CORPUSCULAR HEMOGLOBIN CONCENTRATION: 40.33 G/DL
  MEAN CORPUSCULAR VOLUME: 60.17 fL
  MONOCYTE: 0.33%
  NEUTROPHIL: 4.67%
  NUCLEATED RED BLOOD CELLS: 0 /100WBC
  PLATELET COUNT: 1036.67 x10E3/uL
  ALANINE AMINOTRANSFERASE: 50.33 u/L
  ALBUMIN: 3.93 G/DL
  ALKALINE PHOSPHATASE: 347.67 u/L
  ASPARTATE AMINOTRANSFERASE: 100.33 u/L
  BLOOD UREA NITROGEN: 18 mg/dL
  CARBON DIOXIDE: 26 mmol/L
  CHLORIDE: 104 MEQ/L
  CHOLESTEROL: 57.67 mg/dL
  CREATINE PHOSPHOKINASE: 706.67 u/L
  CREATININE: 0.15 mg/dL
  GLUCOSE: 145.67 mg/dL
  LACTATE DEHYDROGENASE: 811.33 u/L
  LIPASE: 9.67 u/L
  PHOSPHORUS: 10.97 mg/dL
  POTASSIUM: 6.19 MEQ/L
  SODIUM: 144.13 MEQ/L
  TOTAL BILIRUBIN: 0.2 mg/dL
  TOTAL PROTEIN: 5.53 G/DL
  URIC ACID: 1.17 mg/dL
